Data from PubChem BioAssay AID1918994 (Molecular Pharmacology Branch, DTP, NCI, 2023).
“And” between values parts separate entries of the source, which are not always exact repeats. Equal entries are not always repeated. Blank lines part the entries; values can stand above or below the molecule they belong to.

Test system: 292921-168-R-J2-PDC complex spheroid growth
Assay: Anticancer human tumor 292921-168-R-J2-PDC patient-derived pancreatic carcinoma cell line growth inhibition [AhR]
Conditions: for viability, T/C: stronger effect = lower value
Summary of the method: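 Agents were dosed in half-log steps down from roughly clinical Cmax, or from 10 microM where Cmax was unknown, alone and with AhR antagonists. Read-out: percent test/control growth of tumor spheroids containing HUVEC and MSC stromal cells.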

[1] = curve of first compound, second compound 0.1 µM
[2] = curve of first compound, second compound 0.316 µM
[3] = curve of first compound, second compound 1 µM
[4] = curve of first compound, second compound 3.16 µM
[5] = curve of first compound, second compound 10 µM
[6] = second compound 0.1 µM, first compound 0.0316 µM
[7] = second compound 0.1 µM, first compound 0.1 µM
[8] = second compound 0.1 µM, first compound 0.316 µM
[9] = second compound 0.1 µM, first compound 1 µM
[10] = second compound 0.1 µM, first compound 3.16 µM
[11] = second compound 0.1 µM, first compound 10 µM
[12] = second compound 0.316 µM, first compound 0.0316 µM
[13] = second compound 0.316 µM, first compound 0.1 µM
[14] = second compound 0.316 µM, first compound 0.316 µM
[15] = second compound 0.316 µM, first compound 1 µM
[16] = second compound 0.316 µM, first compound 3.16 µM
[17] = second compound 0.316 µM, first compound 10 µM
[18] = second compound 1 µM, first compound 0.0316 µM
[19] = second compound 1 µM, first compound 0.1 µM
[20] = second compound 1 µM, first compound 0.316 µM
[21] = second compound 1 µM, first compound 1 µM
[22] = second compound 1 µM, first compound 3.16 µM
[23] = second compound 1 µM, first compound 10 µM
[24] = second compound 3.16 µM, first compound 0.0316 µM
[25] = second compound 3.16 µM, first compound 0.1 µM
[26] = second compound 3.16 µM, first compound 0.316 µM
[27] = second compound 3.16 µM, first compound 1 µM
[28] = second compound 3.16 µM, first compound 3.16 µM
[29] = second compound 3.16 µM, first compound 10 µM
[30] = second compound 10 µM, first compound 0.0316 µM
[31] = second compound 10 µM, first compound 0.1 µM
[32] = second compound 10 µM, first compound 0.316 µM
[33] = second compound 10 µM, first compound 1 µM
[34] = second compound 10 µM, first compound 3.16 µM
[35] = second compound 10 µM, first compound 10 µM
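Note: spheroids exposed to compounds for seven days after three days of growth.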

Structure (SMILES): CC(C)c1c(-c2ccccc2)nc2c(C#N)c[nH]n2c1=O + Cc1ccccc1N=Nc1ccc(NC(=O)c2ccnn2C)c(C)c1
IC50 [1]: > 10000 nM | IC50 [2]: > 10000 nM | IC50 [3]: > 10000 nM | IC50 [4]: > 10000 nM | IC50 [5]: > 10000 nM | viability, T/C [6]: 86.5% | viability, T/C [7]: 86% | viability, T/C [8]: 91.9% | viability, T/C [9]: 88.7% | viability, T/C [10]: 89.8% | viability, T/C [11]: 96.5% | viability, T/C [12]: 79.3% | viability, T/C [13]: 85.2% | viability, T/C [14]: 86.1% | viability, T/C [15]: 81.2% | viability, T/C [16]: 94% | viability, T/C [17]: 85.9% | viability, T/C [18]: 84.2% | viability, T/C [19]: 86.2% | viability, T/C [20]: 80.8% | viability, T/C [21]: 87% | viability, T/C [22]: 83.6% | viability, T/C [23]: 81.8% | viability, T/C [24]: 78.6% | viability, T/C [25]: 72.3% | viability, T/C [26]: 78.8% | viability, T/C [27]: 76.8% | viability, T/C [28]: 74% | viability, T/C [29]: 65.8% | viability, T/C [30]: 58.1% | viability, T/C [31]: 61.2% | viability, T/C [32]: 58.6% | viability, T/C [33]: 63.9% | viability, T/C [34]: 65% | viability, T/C [35]: 50.3%

Structure (SMILES): COc1cc(C2c3cc4c(cc3C(OC3OC5COC(C)OC5C(O)C3O)C3COC(=O)C23)OCO4)cc(OC)c1O (stereo not drawn) + CC(CO)NC(=O)c1cc(-c2ccc(Cl)cc2)nn(-c2cnn(C)c2)c1=O
IC50 [1]: 645 nM | IC50 [2]: 563 nM | IC50 [3]: 542 nM | IC50 [4]: 421 nM | IC50 [5]: 163 nM | viability, T/C [6]: 95.7% | viability, T/C [7]: 92.4% | viability, T/C [8]: 67.9% | viability, T/C [9]: 38% | viability, T/C [10]: 22.6% | viability, T/C [11]: 13.7% | viability, T/C [12]: 89.3% | viability, T/C [13]: 85.5% | viability, T/C [14]: 65% | viability, T/C [15]: 33.6% | viability, T/C [16]: 24.4% | viability, T/C [17]: 13.7% | viability, T/C [18]: 98.8% | viability, T/C [19]: 90.9% | viability, T/C [20]: 61.7% | viability, T/C [21]: 34.4% | viability, T/C [22]: 24.6% | viability, T/C [23]: 13.7% | viability, T/C [24]: 85.1% | viability, T/C [25]: 75% | viability, T/C [26]: 56.3% | viability, T/C [27]: 31.3% | viability, T/C [28]: 22.4% | viability, T/C [29]: 11.8% | viability, T/C [30]: 60.9% | viability, T/C [31]: 60% | viability, T/C [32]: 38.8% | viability, T/C [33]: 27.4% | viability, T/C [34]: 19.6% | viability, T/C [35]: 11.4%

Structure (SMILES): Nc1ccn(C2OC(CO)C(O)C2(F)F)c(=O)n1 (stereo not drawn)
viability, T/C (compound 0.0316 µM): 11.7% and 10.6% and 9.71% | viability, T/C (compound 0.1 µM): 9.82% and 10.9% and 7.67% | viability, T/C (compound 0.316 µM): 9.66% and 9.32% and 10.4% | viability, T/C (compound 1 µM): 10.1% and 11.1% and 8.88% | viability, T/C (compound 3.16 µM): 9.41% and 11.4% and 8.79% | viability, T/C (compound 10 µM): 7.29% and 6.09% and 6.67% | IC50 (curve of compound): < 31.6 nM

Structure (SMILES): CC(C)c1c(-c2ccccc2)nc2c(C#N)c[nH]n2c1=O
viability, T/C (compound 0.0316 µM): 113% and 103% (2×) | viability, T/C (compound 0.1 µM): 117% and 104% and 107% | viability, T/C (compound 0.316 µM): 105% (2×) and 106% | viability, T/C (compound 1 µM): 115% and 91% and 98.9% | viability, T/C (compound 3.16 µM): 106% and 102% and 99.9% | viability, T/C (compound 10 µM): 95.3% and 96% and 107% | IC50 (curve of compound): > 10000 nM

Now from value to molecule, other results behind:

IC50 (curve of compound): 2060 nM and 2490 nM and 2000 nM
Structure (SMILES): COc1ccc([C@@H](O)c2cc(-c3ncnc4cc(N5CCOCC5)ccc34)c(F)cc2Cl)nn1
viability, T/C (compound 0.0316 µM): 92.7% and 96.3% and 98.8% | viability, T/C (compound 0.1 µM): 99.2% and 95.5% and 101% | viability, T/C (compound 0.316 µM): 88% and 86.4% and 84.7% | viability, T/C (compound 1 µM): 64.6% and 70.2% and 62.2% | viability, T/C (compound 3.16 µM): 42.2% and 44.8% and 43.1% | viability, T/C (compound 10 µM): 27.6% and 24.4% and 25.5%

IC50 (curve of compound): > 100 nM
Structure (SMILES): Cn1ncnc1C1c2n[nH]c(=O)c3cc(F)cc(c23)NC1c1ccc(F)cc1 (stereo not drawn)
viability, T/C (compound 0.000316 µM): 101% and 103% and 106% | viability, T/C (compound 0.001 µM): 103% and 111% and 95.4% | viability, T/C (compound 0.00316 µM): 96.3% and 91.7% and 97.4% | viability, T/C (compound 0.01 µM): 96.2% and 96.3% and 97.7% | viability, T/C (compound 0.0316 µM): 88% and 97.5% and 90.3% | viability, T/C (compound 0.1 µM): 91.5% and 80.2% and 86%
